In test [1] the target is T1, 14-3-3 zeta (Homo sapiens, UniProt P63104).
T1 construct: made in house; host or cells: E. coli DH5α (vector pGEX-KT)
T1 sequence (P63104 1-245): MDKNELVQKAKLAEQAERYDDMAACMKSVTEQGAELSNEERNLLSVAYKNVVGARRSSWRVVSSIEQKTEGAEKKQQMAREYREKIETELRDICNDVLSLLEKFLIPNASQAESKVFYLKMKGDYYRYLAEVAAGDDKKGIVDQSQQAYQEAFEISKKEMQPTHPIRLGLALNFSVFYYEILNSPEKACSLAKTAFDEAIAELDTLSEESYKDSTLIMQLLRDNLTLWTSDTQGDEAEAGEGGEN
Nature of the test: SPR competitive inhibition of 14-3-3 zeta binding to chip-coupled phosphorylated Raf-259 peptide. The conditions noted are these: 14-3-3 zeta 0.5-1.0 μM; competitor 1-50 μM; relative affinity only. On the procedure: (§1) The ability of each peptide to inhibit binding of 14-3-3 zeta to the phosphorylated peptide was then tested in a range of concentrations between 1 and 50 μM. 14-3-3 zeta was prepared according to the methods in Example 1 and binding affinities and specificities were determined using the peptides in Table 2. The 14-3-3 zeta fusion proteins (0.5-1.0 μM) were pre-incubated with a given peptide at concentrations between 1 μM and 50 μM. 14-3-3 zeta was then infused across a sensor chip surface which had been previously coupled with the phosphorylated Raf-259 peptide (SEQ ID NO: 4). IC50 values were determined by plotting the concentration of competitor peptide required to achieve a 50% reduction in equilibrium binding.

In a further test the target is T2, 14-3-3 eta (Homo sapiens, UniProt Q04917).
T2 construct: made in house; host or cells: E. coli DH5α (vector pGEX-KT)
T2 sequence (Q04917 1-246): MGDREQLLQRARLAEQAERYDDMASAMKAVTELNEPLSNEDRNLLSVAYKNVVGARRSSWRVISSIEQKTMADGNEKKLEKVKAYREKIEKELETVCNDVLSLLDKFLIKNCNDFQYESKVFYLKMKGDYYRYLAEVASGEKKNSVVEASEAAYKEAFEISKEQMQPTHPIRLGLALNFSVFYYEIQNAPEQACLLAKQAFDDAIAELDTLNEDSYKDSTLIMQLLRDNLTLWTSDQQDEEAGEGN
Nature of the test: SPR competitive inhibition of 14-3-3 eta binding to phosphorylated Raf-259 peptide. The conditions noted are these: isoform eta. On the procedure:
as §1
(§2) There are seven known isoforms of 14-3-3 which form homo- and heterodimers in vivo. If different isoforms of 14-3-3 could bind to proteins with distinct specificities, heterodimeric forms of 14-3-3 might function as modular linker proteins, bringing together different proteins into a single complex. We were, therefore, interested in determining whether different 14-3-3 isoforms recognize phosphoserine in a sequence specific fashion. This hypothesis was tested by expressing and purifying three other 14-3-3 isoforms, eta, beta and tau, and measuring their affinity towards the panel of phosphorylated peptides generated above. Using the Surface Plasmon Resonance method, the "on" and "off" rates for 14-3-3 binding to the phosphorylated Raf-259 peptide were calculated (Table 6).
(§3) Competitive inhibition with the mutated phosphorylated Raf-1 peptides was used to determine whether their specificities were similar (Table 7). In each case, the calculated IC50 s were very similar to those calculated for 14-3-3 zeta.

For a further test, the target named is T3, 14-3-3 tau (Homo sapiens, UniProt P27348).
T3 construct: made in house; host or cells: E. coli DH5α (vector pGEX-KT)
T3 sequence (P27348 1-245): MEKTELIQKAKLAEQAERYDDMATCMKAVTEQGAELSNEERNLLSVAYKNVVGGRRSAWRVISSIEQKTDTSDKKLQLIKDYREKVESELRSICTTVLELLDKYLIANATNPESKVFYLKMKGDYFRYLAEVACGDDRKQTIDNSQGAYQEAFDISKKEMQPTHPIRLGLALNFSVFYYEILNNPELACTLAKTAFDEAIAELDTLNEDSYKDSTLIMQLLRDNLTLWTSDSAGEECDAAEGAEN
Nature of the test: SPR competitive inhibition of 14-3-3 tau binding to phosphorylated Raf-259 peptide. The note with it: isoform tau. As for the experimental part:
as §1, §2, §3

In another test the target is T4, 14-3-3 beta (Homo sapiens, UniProt P31946).
T4 construct: made in house; host or cells: E. coli DH5α (vector pGEX-KT)
T4 sequence (P31946 1-246): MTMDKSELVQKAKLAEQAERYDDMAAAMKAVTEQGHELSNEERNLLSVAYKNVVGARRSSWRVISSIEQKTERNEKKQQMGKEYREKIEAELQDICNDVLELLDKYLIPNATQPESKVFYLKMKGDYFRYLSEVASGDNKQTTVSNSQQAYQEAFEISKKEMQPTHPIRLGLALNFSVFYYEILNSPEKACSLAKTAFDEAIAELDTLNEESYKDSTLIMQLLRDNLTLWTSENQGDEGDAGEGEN
Nature of the test: SPR competitive inhibition of 14-3-3 beta binding to phosphorylated Raf-259 peptide. The note with it: isoform beta. As for the experimental part: as §1, §2, §3

Test [2] deals with T1, 14-3-3 zeta. As to the kind of experiment: Surface plasmon resonance, GST-14-3-3 zeta binding to immobilized biotinylated Raf-259 peptide (binding and kinetics). The note with it: 14-3-3 zeta. On the procedure:
These experiments were performed using the BIAcore 2000 (Pharmacia). The basic principles and detection methods have been reviewed previously (Jonsson et al. Biotech. 11:620-7, 1991; Jonsson et al. Ann Bio Clin 51:19-26, 1993 which are incorporated by reference). In brief, 5 μl of the biotinylated raf-259 peptide (1 nM) was immobilized onto streptavidin-coated (SA5, Pharmacia) sensor chips at a flow rate of 5 μl/min at 25° C. […] To phosphorylate the immobilized peptides, 5 U of PKA in a buffer containing 200 μM ATP in 50 μl was infused over the chip at a flow rate of 2 μl/min at 30° C.
Because the surface plasmon resonance detects binding in real time, this method can be used to directly determine the rates of association (kon) and dissociation (koff). For these kinetic measurements, GST/14-3-3 fusion proteins were injected over a range of concentrations between 200 nM and 5 μM. The "on" rate, kon, was determined by calculating dR/dt for the initial linear portion of association using the Biaevaluation software (Pharmacia). Because ligand rebinding to the sensor chip can affect the "off" rate (koff, Panayotou et al. Mol Cell Biol 13:3567-76, 1993 which is incorporated by reference), we measured the "off" rate in the presence of 50 μM free ligand by using the coinject function of the Biacore. The "off" rate measured in the absence of 50 μM free ligand was approximately 10-fold lower.
The biotinylated, […] Raf-1 peptide (SEQ ID NO: 4) was coupled to avidin coated chip surface to study the kinetics of its binding to 14-3-3 zeta. The association rate was determined to be approximately 2.3×10^4 M^-1×s^-1 and the dissociation rate was determined to be approximately 2.8×10^-3 s^-1. To minimize the effects of protein rebinding to the surface of the sensor chip, the dissociation rate was measured in the presence of 50 μM free phosphorylated Raf-1 peptide.

Several values for one entry are separate records, joined by “and”; a condition that tells them apart may be missing. Equal values may be shown once. Where a SMILES comes first, the peptide text is derived from it. Where no end group is shown, it is not given here. [ ]: non-standard residue; d: D form. pS = N[C@@H](COP(=O)(O)O)C(=O)O A value given as a limit tells only on which side of the number the result lay.

Take `CC(C)C[C@H](N)C(=O)N[C@@H](CO)C(=O)N[C@@H](CCC(N)=O)C(=O)N[C@@H](CCCNC(=N)N)C(=O)N[C@@H](CCC(N)=O)C(=O)N[C@@H](C)C(=O)N[C@@H](CO)C(=O)N[C@H](C(=O)N[C@@H](COP(=O)(O)O)C(=O)N[C@H](C(=O)N1CCC[C@H]1C(=O)N[C@@H](CC(N)=O)C(=O)N[C@H](C(=O)N[C@@H](Cc1c[nH]cn1)C(=O)N[C@@H](C)C(=O)O)C(C)C)[C@@H](C)O)[C@@H](C)O` [Peptide 256RA] (H-LSQRQAST[pS]TPNVHA-OH): the IC50 at 14-3-3 zeta [1] was determined as 19 µM.

With `CC(C)C[C@H](N)C(=O)N[C@@H](CO)C(=O)N[C@@H](CCC(N)=O)C(=O)N[C@@H](CCCNC(=N)N)C(=O)N[C@@H](CCC(N)=O)C(=O)N[C@@H](CCCNC(=N)N)C(=O)N[C@@H](COP(=O)(O)O)C(=O)N[C@H](C(=O)N[C@@H](CO)C(=O)N[C@H](C(=O)N1CCC[C@H]1C(=O)N[C@@H](CC(N)=O)C(=O)N[C@H](C(=O)N[C@@H](Cc1c[nH]cn1)C(=O)N[C@@H](C)C(=O)O)C(C)C)[C@@H](C)O)[C@@H](C)O` [pS-Raf-257] (H-LSQRQR[pS]TSTPNVHA-OH), the IC50 on 14-3-3 eta, at 14-3-3 zeta [1], on 14-3-3 tau and at 14-3-3 beta was above 50 µM each time.

Regarding `CC(C)C[C@H](N)C(=O)N[C@@H](CO)C(=O)N[C@@H](CCC(N)=O)C(=O)N[C@@H](C)C(=O)N[C@@H](CCC(N)=O)C(=O)N[C@@H](C)C(=O)N[C@@H](CO)C(=O)N[C@H](C(=O)N[C@@H](COP(=O)(O)O)C(=O)N[C@H](C(=O)N1CCC[C@H]1C(=O)N[C@@H](CC(N)=O)C(=O)N[C@H](C(=O)N[C@@H](Cc1c[nH]cn1)C(=O)N[C@@H](C)C(=O)O)C(C)C)[C@@H](C)O)[C@@H](C)O` [254/256RA] (H-LSQAQAST[pS]TPNVHA-OH), the IC50 on 14-3-3 eta, on 14-3-3 zeta [1], at 14-3-3 tau and at 14-3-3 beta was above 50 µM in each case.

`CC(C)C[C@H](N)C(=O)N[C@@H](CO)C(=O)N[C@@H](CCC(N)=O)C(=O)N[C@@H](C)C(=O)N[C@@H](CCCNC(=N)N)C(=O)N[C@@H](CCC(N)=O)C(=O)N[C@@H](CO)C(=O)N[C@H](C(=O)N[C@@H](COP(=O)(O)O)C(=O)N[C@H](C(=O)N1CCC[C@H]1C(=O)N[C@@H](CC(N)=O)C(=O)N[C@H](C(=O)N[C@@H](Cc1c[nH]cn1)C(=O)N[C@@H](C)C(=O)O)C(C)C)[C@@H](C)O)[C@@H](C)O` [Peptide R-4] (H-LSQARQST[pS]TPNVHA-OH) came in with an IC50 at 14-3-3 zeta [1] of 11 µM.

Turning to `CSCC[C@H](NC(=O)[C@H](Cc1c[nH]cn1)NC(=O)[C@@H](NC(=O)[C@H](CC(N)=O)NC(=O)[C@H](C)NC(=O)[C@@H](NC(=O)[C@H](COP(=O)(O)O)NC(=O)[C@@H](NC(=O)[C@H](CO)NC(=O)[C@H](CCCNC(=N)N)NC(=O)[C@H](CCC(N)=O)NC(=O)[C@H](CCCNC(=N)N)NC(=O)[C@H](CCC(N)=O)NC(=O)[C@H](CO)NC(=O)[C@@H](N)CC(C)C)[C@@H](C)O)[C@@H](C)O)C(C)C)C(=O)O` [PA] (H-LSQRQRST[pS]TANVHM-OH), the IC50 was 20 µM at 14-3-3 eta; ~25 µM and 25 µM at 14-3-3 zeta [1]; 27 µM at 14-3-3 tau; 24 µM at 14-3-3 beta.

Consider “LSQRQRSTSTPNVHM [Raf-259, LSQRQRSTSTPNVHM, reference compound]”, for which, at 14-3-3 zeta [2] (KD = koff/kon, read-out: apparent KD measured by SPR), the Kd was around 0.122 µM. Further, the koff on 14-3-3 zeta [2] (in the presence of 50 μM free phosphorylated Raf-1 peptide, read-out: dissociation rate) is around 0.0028 s⁻¹. In addition, on 14-3-3 zeta [2] (read-out: association rate), the kon is around 23000 M⁻¹ s⁻¹.

On 14-3-3 zeta [1], `CC(C)C[C@H](N)C(=O)N[C@@H](CO)C(=O)N[C@@H](CCC(N)=O)C(=O)N[C@@H](C)C(=O)N[C@@H](CCC(N)=O)C(=O)N[C@@H](CCCNC(=N)N)C(=O)N[C@@H](CO)C(=O)N[C@H](C(=O)N[C@@H](COP(=O)(O)O)C(=O)N[C@H](C(=O)N1CCC[C@H]1C(=O)N[C@@H](CC(N)=O)C(=O)N[C@H](C(=O)N[C@@H](Cc1c[nH]cn1)C(=O)N[C@@H](C)C(=O)O)C(C)C)[C@@H](C)O)[C@@H](C)O` [Peptide 254RA] (H-LSQAQRST[pS]TPNVHA-OH) came in with an IC50 of 9 µM.

`CC(C)C[C@H](N)C(=O)N[C@@H](CO)C(=O)N[C@@H](CCC(N)=O)C(=O)N[C@@H](CCCNC(=N)N)C(=O)N[C@@H](CCC(N)=O)C(=O)N[C@@H](CCCNC(=N)N)C(=O)N[C@@H](COP(=O)(O)O)C(=O)N[C@H](C(=O)N[C@@H](COP(=O)(O)O)C(=O)N[C@H](C(=O)N1CCC[C@H]1C(=O)N[C@@H](CC(N)=O)C(=O)N[C@H](C(=O)N[C@@H](Cc1c[nH]cn1)C(=O)N[C@@H](C)C(=O)O)C(C)C)[C@@H](C)O)[C@@H](C)O` [pS-Raf-257,259] (H-LSQRQR[pS]T[pS]TPNVHA-OH): the IC50 at 14-3-3 eta, on 14-3-3 zeta [1], at 14-3-3 tau and at 14-3-3 beta was above 50 µM each time.

In the case of `CC(C)C[C@H](N)C(=O)N[C@@H](CO)C(=O)N[C@@H](CCC(N)=O)C(=O)N[C@@H](C)C(=O)N[C@@H](CCC(N)=O)C(=O)N[C@@H](CO)C(=O)N[C@@H](CCCNC(=N)N)C(=O)N[C@H](C(=O)N[C@@H](COP(=O)(O)O)C(=O)N[C@H](C(=O)N1CCC[C@H]1C(=O)N[C@@H](CC(N)=O)C(=O)N[C@H](C(=O)N[C@@H](Cc1c[nH]cn1)C(=O)N[C@@H](C)C(=O)O)C(C)C)[C@@H](C)O)[C@@H](C)O` [Peptide R-2] (H-LSQAQSRT[pS]TPNVHA-OH), at 14-3-3 zeta [1], the half-inhibitory concentration (IC50) was above 50 µM.

These data come from US6207393A, “Inhibition of intracellular signal transduction by 14-3-3-binding peptides” (Washington University, priority 1999, dated 2001).
